In brackets after ≈: the same amount, converted by molar mass.
Key:
[1] = tested on: human liver cancer cell line (HepG-2); test: MTT anticancer assay; assay type: cell-based; settings: HepG2, HePG-2 cancer liver cell line, mean of three values, read-out: IC50 (Mean ± SEM)
[2] = tested on: P. aeruginosa RCMB 010043; test: Minimum inhibitory concentration, modified agar well diffusion; assay type: cell-based; settings: Pseudomonas aeruginosa, RCMB010043, mean of three values, read-out: MIC (Mean ± SEM)
[3] = tested on: P. aeruginosa RCMB 010043; test: Agar well diffusion, inhibition zone; assay type: cell-based, Pseudomonas aeruginosa; set-up: key to Mean diameter of inhibition zone (Mean ± SEM): –: -: No activity under the screening conditions; settings: mean of three values
[4] = tested on: B. subtilis RCMB 010067; test: Agar well diffusion, inhibition zone; assay type: cell-based, Bacillus subtilis; set-up: key to Mean diameter of inhibition zone (Mean ± SEM): –: -: No activity under the screening conditions; settings: mean of three values
[5] = tested on: E. coli RCMB 010052; test: Minimum inhibitory concentration, modified agar well diffusion; assay type: cell-based; settings: Escherichia coli, RCMB010052, mean of three values, read-out: MIC (Mean ± SEM)
[6] = tested on: (THLE-2) normal liver cell line; test: Cytotoxic screening on normal liver cells; assay type: cell-based; settings: Homo sapiens, mean of three values, read-out: IC50 (Mean ± SEM)
[7] = target: E. coli DNA gyrase B (Escherichia coli, UniProt P0AES6); test: In-vitro enzyme assay on DNA gyrase B; assay type: biochemical
[8] = tested on: C. albicans RCMB 005036; test: Agar well diffusion, inhibition zone; assay type: cell-based, Candida albicans; set-up: key: –: -: No activity under the screening conditions; settings: 1 mg/mL, mean of three values
[9] = tested on: A. fumigatus RCMB 002568; test: Agar well diffusion, inhibition zone; assay type: cell-based, Aspergillus fumigatus; set-up: key to Mean diameter of inhibition zone (Mean ± SEM): –: -: No activity under the screening conditions; settings: mean of three values
[10] = tested on: A. fumigatus RCMB 002568; test: Minimum inhibitory concentration, modified agar well diffusion; assay type: cell-based; settings: Aspergillus fumigatus, RCMB002568, mean of three values, read-out: MIC (Mean ± SEM)
[11] = tested on: S. pneumonia RCMB 010010; test: Minimum inhibitory concentration, modified agar well diffusion; assay type: cell-based; settings: Streptococcus pneumoniae, RCMB010010, mean of three values, read-out: MIC (Mean ± SEM)
[12] = tested on: B. subtilis RCMB 010067; test: as above; assay type: cell-based; settings: Bacillus subtilis, RCMB010067, mean of three values, read-out: MIC (Mean ± SEM)
[13] = target: VEGFR-2 (Homo sapiens, UniProt P35968); test: In-vitro enzyme assay on VEGFR-2; assay type: biochemical; settings: read-out: IC50 (Mean ± SEM)
[14] = tested on: E. coli RCMB 010052; test: Agar well diffusion, inhibition zone; assay type: cell-based, Escherichia coli; set-up: key to Mean diameter of inhibition zone (Mean ± SEM): –: -: No activity under the screening conditions; settings: mean of three values
[15] = tested on: S. pneumonia RCMB 010010; test: Agar well diffusion, inhibition zone; assay type: cell-based, Streptococcus pneumoniae; set-up: key to Mean diameter of inhibition zone (Mean ± SEM): –: -: No activity under the screening conditions; settings: mean of three values
[16] = tested on: tested bacterial and fungal strains; test: Antimicrobial screening, summary over all tested strains; assay type: cell-based; settings: 1 mg/mL
Description: All bacterial and fungal strains were received from the culture collection of the Regional Center for Mycology and Biotechnology (RCMB), Al-Azhar University, Cairo, Egypt. All target derivatives were screened in-vitro opposite to various kinds of bacteria, Gram-positive bacteria (Streptococcus pneumoniae and Bacillus subtilis) and Gram-negative bacteria (Pseudomonas aeruginosa and Escherichia coli) and for their Antifungal activities against Aspergillus fumigatus and Candida albicans, respectively. Ampicillin and gentamycin were used as standard antibacterial drugs while amphotericin B was used as reference antifungal drug. The diameter of inhibition zone (mm) was measured for the biological activity using the diffusion technique. The promising compounds were further investigated to evaluate their antimicrobial activity expressed in terms of minimum inhibitory concentration (MIC) using the modified agar well diffusion method.
The newly prepared targets were subjected for in-vitro antibacterial screening against Gram-positive bacteria (Streptococcus pneumonia and Bacillus subtilis) and Gram-negative bacteria (Pseudomonas aeruginosa and Escherichia coli). […] The compounds’ solutions of concentrations (1 mg/mL) were evaluated against the different microorganism’s and the inhibition zone (IZ) used diameter in mm for the biologically activity (agar well diffusion method).

VEGFR-2, sequence (P35968 20-1356): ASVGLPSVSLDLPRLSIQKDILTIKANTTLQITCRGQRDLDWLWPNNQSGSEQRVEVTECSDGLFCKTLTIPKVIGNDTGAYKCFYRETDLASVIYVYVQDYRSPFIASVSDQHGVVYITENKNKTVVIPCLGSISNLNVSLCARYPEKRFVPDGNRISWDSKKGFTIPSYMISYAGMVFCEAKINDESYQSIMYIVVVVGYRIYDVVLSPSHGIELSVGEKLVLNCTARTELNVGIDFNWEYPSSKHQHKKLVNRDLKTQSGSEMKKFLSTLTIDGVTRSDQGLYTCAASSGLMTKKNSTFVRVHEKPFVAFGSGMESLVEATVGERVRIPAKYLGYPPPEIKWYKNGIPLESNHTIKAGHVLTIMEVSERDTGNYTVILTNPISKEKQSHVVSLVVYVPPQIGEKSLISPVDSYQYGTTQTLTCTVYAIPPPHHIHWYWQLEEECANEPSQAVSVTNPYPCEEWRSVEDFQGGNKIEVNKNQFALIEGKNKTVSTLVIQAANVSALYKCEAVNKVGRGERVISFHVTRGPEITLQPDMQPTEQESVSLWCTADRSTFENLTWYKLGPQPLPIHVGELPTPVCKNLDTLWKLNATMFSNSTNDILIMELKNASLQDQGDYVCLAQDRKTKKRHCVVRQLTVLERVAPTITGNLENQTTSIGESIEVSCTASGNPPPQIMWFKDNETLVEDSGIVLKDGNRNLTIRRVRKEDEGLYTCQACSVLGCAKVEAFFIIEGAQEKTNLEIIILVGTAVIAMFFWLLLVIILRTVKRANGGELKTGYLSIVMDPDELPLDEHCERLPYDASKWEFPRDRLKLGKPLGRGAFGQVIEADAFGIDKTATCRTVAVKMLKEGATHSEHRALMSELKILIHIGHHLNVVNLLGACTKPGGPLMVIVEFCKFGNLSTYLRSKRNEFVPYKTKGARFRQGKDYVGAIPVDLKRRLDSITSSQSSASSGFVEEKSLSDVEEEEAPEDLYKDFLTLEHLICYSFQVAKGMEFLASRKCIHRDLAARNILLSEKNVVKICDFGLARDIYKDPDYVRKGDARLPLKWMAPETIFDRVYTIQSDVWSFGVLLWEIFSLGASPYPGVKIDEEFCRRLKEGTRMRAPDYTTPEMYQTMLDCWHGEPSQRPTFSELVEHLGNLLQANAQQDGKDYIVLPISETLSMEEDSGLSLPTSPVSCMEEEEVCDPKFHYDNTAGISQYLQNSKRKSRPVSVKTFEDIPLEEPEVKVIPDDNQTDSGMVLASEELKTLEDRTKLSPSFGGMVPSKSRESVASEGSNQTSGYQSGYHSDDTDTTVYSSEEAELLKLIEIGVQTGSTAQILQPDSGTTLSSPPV

NC1=NNC(=O)C1=NNN1C(=O)c2ccccc2C1=O [Compound 4, 2-(2-(3-Amino-5-oxo-1H-pyrazol-4(5H)-ylidene)hydrazinyl)isoindoline-1,3-dione]
IC50 [1]: 4.22 ± 1.04 mg/L (≈ 15.5 µM)
MIC [2]: 0.98 ± 0.02 mg/L (≈ 3.6 µM)
zone of inhibition at 1000 µg/mL ([3]; Pseudomonas aeruginosa, RCMB010043, 1 mg/mL, read-out: Mean diameter of inhibition zone (Mean ± SEM)): 19.2 ± 0.5 mm
zone of inhibition at 1000 µg/mL ([4]; Bacillus subtilis, RCMB010067, 1 mg/mL, read-out: Mean diameter of inhibition zone (Mean ± SEM)): 25.1 ± 0.5 mm
MIC [5]: 0.49 ± 0.39 mg/L (≈ 1.8 µM)
IC50 [6]: 874.31 ± 0.22 mg/L (≈ 3210 µM)
IC50 [7]: 0.34 ± 0.63 µM
Mean diameter of inhibition zone (Mean ± SEM) [8]: –
zone of inhibition at 1000 µg/mL ([9]; Aspergillus fumigatus, RCMB002568, 1 mg/mL, read-out: Mean diameter of inhibition zone (Mean ± SEM)): 23.1 ± 0.5 mm
MIC [10]: 1.95 ± 0.28 mg/L (≈ 7.16 µM)
melting point: 289 to 290 °C
MIC [11]: 1.95 ± 0.23 mg/L (≈ 7.16 µM)
MIC [12]: 0.98 ± 0.42 mg/L (≈ 3.6 µM)
IC50 [13]: 0.09 µM
zone of inhibition at 1000 µg/mL ([14]; Escherichia coli, RCMB010052, 1 mg/mL, read-out: Mean diameter of inhibition zone (Mean ± SEM)): 24.5 ± 0.3 mm
zone of inhibition at 1000 µg/mL ([15]; Streptococcus pneumoniae, RCMB010010, 1 mg/mL, read-out: Mean diameter of inhibition zone (Mean ± SEM)): 23 ± 0.4 mm

O=C1Cn2nc(O)c(N=NN3C(=O)c4ccccc4C3=O)c2N1 [Compound 5, 2-((6-Hydroxy-2-oxo-2,3-dihydro-1H-imidazo[1,2-b]pyrazol-7-yl)diazenyl)-isoindoline-1,3-dione]
IC50 [1]: 31.8 ± 1.56 mg/L (≈ 102 µM)
Mean diameter of inhibition zone (Mean ± SEM) ([3]; 1 mg/mL): –
Mean diameter of inhibition zone (Mean ± SEM) ([4]; 1 mg/mL): –
IC50 [6]: 597.83 ± 0.14 mg/L (≈ 1910 µM)
Mean diameter of inhibition zone (Mean ± SEM) [8]: –
Mean diameter of inhibition zone (Mean ± SEM) ([9]; 1 mg/mL): –
melting point: 157 to 158 °C
Mean diameter of inhibition zone (Mean ± SEM) ([14]; 1 mg/mL): –
antimicrobial activity, overall [16]: no antimicrobial activities
Mean diameter of inhibition zone (Mean ± SEM) ([15]; 1 mg/mL): –

— PMC6691772, “Novel phthalimide based analogues: design, synthesis, biological evaluation, and molecular docking studies” (Journal of Enzyme Inhibition and Medicinal Chemistry, 2019)
